According to ChEMBL document CHEMBL4840370, “Irilone, a Red Clover Isoflavone, Combined with Progesterone Enhances PR Signaling through the Estrogen and Glucocorticoid Receptors” (J Nat Prod, 2021):
Calls of active or inactive are those of the source. The rule behind the calls is not given here.

Columns and labels:
[1] = system: Ishikawa; assay: Increase in PR-A protein expression in human Ishikawa PR-B cells at 10 uM incubated for 24 hrs in presence of 100 nM progesterone by western blot analysis; assay type: functional, cell-based
[2] = system: Ishikawa; assay: Effect on PR-A protein expression in human Ishikawa PR-B cells at 10 uM incubated for 24 hrs by western blot analysis; assay type: functional, cell-based
[3] = target: T1, Estrogen receptor (Homo sapiens) (UniProt P03372); assay: Induction of estrogen receptor in human T47D cells assessed as increase in ERE/Luc activity at 10 uM measured after 24 hrs by luciferase reporter gene assay relative to control; assay type: cell-based; details: filed as activator
T1 sequence (whole entry): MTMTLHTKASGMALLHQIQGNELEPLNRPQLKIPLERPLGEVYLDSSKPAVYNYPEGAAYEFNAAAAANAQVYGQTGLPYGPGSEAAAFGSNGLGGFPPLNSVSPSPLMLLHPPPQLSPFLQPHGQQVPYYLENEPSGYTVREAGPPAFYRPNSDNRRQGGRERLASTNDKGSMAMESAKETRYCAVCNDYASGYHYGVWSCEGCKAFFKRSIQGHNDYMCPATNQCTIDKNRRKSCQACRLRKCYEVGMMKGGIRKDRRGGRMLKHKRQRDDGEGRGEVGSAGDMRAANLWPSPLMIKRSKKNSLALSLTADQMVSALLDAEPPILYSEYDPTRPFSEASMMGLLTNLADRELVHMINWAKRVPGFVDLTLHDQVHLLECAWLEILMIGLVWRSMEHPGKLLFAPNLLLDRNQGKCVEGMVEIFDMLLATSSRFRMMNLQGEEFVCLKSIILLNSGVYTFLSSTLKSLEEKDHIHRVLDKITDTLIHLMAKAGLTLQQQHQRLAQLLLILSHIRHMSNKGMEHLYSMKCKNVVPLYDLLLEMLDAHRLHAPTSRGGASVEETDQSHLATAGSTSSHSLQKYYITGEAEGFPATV

[4] = target: T2, Glucocorticoid receptor (Homo sapiens) (UniProt P04150); assay: Agonist activity at GR in human OVCAR-5 cells assessed as induction of HRE/Luc activity at 1 to 10 uM incubated for 24 hrs by luciferase reporter gene assay; assay type: cell-based; details: dose 1-10 µM
T2 sequence (whole entry): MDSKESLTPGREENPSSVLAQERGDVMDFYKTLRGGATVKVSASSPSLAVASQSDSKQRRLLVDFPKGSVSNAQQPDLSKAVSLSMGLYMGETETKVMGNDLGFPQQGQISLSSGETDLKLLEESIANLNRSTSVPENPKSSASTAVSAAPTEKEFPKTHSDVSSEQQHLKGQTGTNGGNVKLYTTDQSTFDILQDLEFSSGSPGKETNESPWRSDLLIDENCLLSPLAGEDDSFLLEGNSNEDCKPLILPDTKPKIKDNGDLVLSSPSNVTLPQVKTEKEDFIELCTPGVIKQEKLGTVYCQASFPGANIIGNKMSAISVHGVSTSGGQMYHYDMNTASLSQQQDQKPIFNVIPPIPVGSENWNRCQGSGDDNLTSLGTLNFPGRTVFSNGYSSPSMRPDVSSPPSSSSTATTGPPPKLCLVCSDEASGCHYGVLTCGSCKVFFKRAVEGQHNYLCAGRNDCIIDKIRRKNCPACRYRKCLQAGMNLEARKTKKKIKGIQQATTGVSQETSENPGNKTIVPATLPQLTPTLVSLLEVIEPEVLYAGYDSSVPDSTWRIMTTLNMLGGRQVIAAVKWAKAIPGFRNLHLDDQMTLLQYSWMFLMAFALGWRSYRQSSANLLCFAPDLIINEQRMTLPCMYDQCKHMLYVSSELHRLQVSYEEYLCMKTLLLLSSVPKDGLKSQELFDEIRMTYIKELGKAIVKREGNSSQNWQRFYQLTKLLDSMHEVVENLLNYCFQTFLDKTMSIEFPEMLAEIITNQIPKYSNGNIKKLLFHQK

[5] = target: T1, Estrogen receptor (Homo sapiens); assay: Induction of estrogen receptor in human T47D cells assessed as increase in HRE-luc activity at 10 uM measured after 24 hrs by HRE-dependent dual luciferase reporter gene assay relative to control; assay type: cell-based; details: filed as activator
[6] = target: T2, Glucocorticoid receptor (Homo sapiens); assay: Induction of glucocorticoid receptor in human Ishikawa PR-B cells transfected with scrambled siRNA assessed as potentiation of progesterone signalling by measuring increase in HRE/Luc activity at 10 uM incubated for 24 hrs in presence of progesterone by luciferase reporter gene assay relative to control; assay type: cell-based; details: filed as activator
[7] = system: T47D; assay: Effect on PR-A phosphorylation at Ser294 residue in human T47D cells at 10 uM incubated for 60 mins by western blot analysis; assay type: functional, cell-based
[8] = system: Ishikawa; assay: Induction of HRE/Luc activity in human Ishikawa null cells at 10 uM incubated for 24 hrs by luciferase reporter gene assay; assay type: functional, cell-based
[9] = system: OVCAR-5; assay: Increase in GR protein expression in human OVCAR-5 cells at 10 uM incubated for 24 hrs by western blot analysis; assay type: functional, cell-based
[10] = target: T1, Estrogen receptor (Homo sapiens); assay: Induction of estrogen receptor in human T47D cells assessed as increase in PR-A protein expression at 10 uM incubated for 24 hrs in presence of SERM, 4-OH-TAM by western blot analysis; assay type: cell-based
[11] = system: OVCAR-5; assay: Repression of dexamethasone-induced HRE/Luc activity in human OVCAR-5 cells at 10 uM incubated for 24 hrs by luciferase reporter gene assay; assay type: functional
[12] = Induction of epithelial cells proliferation in uterus of ovariectomized CD-1 mouse at 4 mg/kg, ip administered once a day for 7 days in presence of progesterone and measured on day 7 at 6 hrs post-last dosage by PCNA staining based immunohistochemistry (reference value: 7%); assay type: organism-based; details: in vivo, 168 h, time 7 day
[13] = system: Ishikawa; assay: Decrease in PR-A protein expression in human Ishikawa PR-B cells at 10 uM incubated for 24 hrs in presence of 100 nM progesterone by western blot analysis; assay type: functional, cell-based
[14] = system: OVCAR-5; assay: Repression of dexamethasone-induced HRE/Luc activity in human OVCAR-5 cells at 1 to 5 uM incubated for 24 hrs by luciferase reporter gene assay; assay type: functional, cell-based; details: dose 1-5 µM
[15] = system: Ishikawa; assay: Effect on PR-B protein expression in human Ishikawa PR-B cells at 10 uM incubated for 24 hrs by western blot analysis; assay type: functional, cell-based
[16] = target: T1, Estrogen receptor (Homo sapiens); assay: Induction of estrogen receptor in human T47D cells assessed as increase in PR-B protein expression at 10 uM incubated for 24 hrs in presence of SERM, 4-OH-TAM and progesterone by western blot analysis; assay type: cell-based
[17] = system: T47D; assay: Effect on PR-B phosphorylation at Ser294 residue in human T47D cells at 10 uM incubated for 60 mins by western blot analysis; assay type: functional, cell-based
[18] = system: Ishikawa; assay: Decrease in PR-B protein expression in human Ishikawa PR-B cells at 10 uM incubated for 24 hrs in presence of 100 nM progesterone by western blot analysis; assay type: functional, cell-based
[19] = target: T1, Estrogen receptor (Homo sapiens); assay: Induction of estrogen receptor in human T47D cells assessed as increase in PR-A protein expression at 10 uM incubated for 24 hrs in presence of progesterone by western blot analysis; assay type: cell-based
[20] = target: T2, Glucocorticoid receptor (Homo sapiens); assay: Induction of glucocorticoid receptor in human Ishikawa PR-B cells assessed as potentiation of progesterone transcriptional activity by measuring increase in HRE-Luc activity at 10 uM measured after 24 hrs in presence of 5 to 100 nM progesterone by HRE-dependent dual luciferase reporter gene assay; assay type: cell-based; details: filed as activator
[21] = system: Ishikawa; assay: Potentiation of progesterone receptor signalling in human Ishikawa null cells transfected with wild type PR assessed as induction of HRE/uc activity at 10 uM incubated for 24 hrs by luciferase reporter gene assay relative to control; assay type: functional
[22] = target: T2, Glucocorticoid receptor (Homo sapiens); assay: Induction of glucocorticoid receptor in human Ishikawa PR-B cells assessed as increase in HRE-luc activity at 10 uM measured after 24 hrs by HRE-dependent dual luciferase reporter gene assay relative to control; assay type: cell-based; details: filed as activator
[23] = system: Ishikawa; assay: Potentiation of progesterone signalling in human Ishikawa null cells transfected with wild type PR assessed as induction of HRE/uc activity at 10 uM incubated for 24 hrs in presence of progesterone by luciferase reporter gene assay relative to control; assay type: functional
[24] = system: Ishikawa; assay: Increase in GR protein expression in human Ishikawa PR-B cells at 10 uM incubated for 24 hrs by western blot analysis; assay type: functional, cell-based
[25] = target: T1, Estrogen receptor (Homo sapiens); assay: Induction of estrogen receptor in human T47D cells assessed as increase in PR-A protein expression at 10 uM incubated for 24 hrs in presence of SERM, 4-OH-TAM and progesterone by western blot analysis; assay type: cell-based
[26] = system: Ishikawa; assay: Increase in PR-B protein expression in human Ishikawa PR-B cells at 10 uM incubated for 24 hrs in presence of 100 nM progesterone by western blot analysis; assay type: functional, cell-based
[27] = Induction of epithelial cells proliferation in uterus of ovariectomized CD-1 mouse at 4 mg/kg, ip administered once a day for 7 days and measured on day 7 at 6 hrs post-last dosage by PCNA staining based immunohistochemistry (reference value: 33.3%); assay type: organism-based; details: in vivo, 168 h, time 7 day
[28] = target: T1, Estrogen receptor (Homo sapiens); assay: Induction of estrogen receptor in human T47D cells assessed as increase in PR-B protein expression at 10 uM incubated for 24 hrs in presence of progesterone by western blot analysis; assay type: cell-based
[29] = system: T47D; assay: Effect on R5020-induced PR-A phosphorylation at Ser294 residue in human T47D cells at 10 uM incubated for 60 mins by western blot analysis; assay type: functional, cell-based
[30] = system: T47D; assay: Effect on R5020-induced PR-B phosphorylation at Ser294 residue in human T47D cells at 10 uM incubated for 60 mins by western blot analysis; assay type: functional, cell-based
[31] = Induction of HRE/Luc activity in human Ishikawa PR-B cells transfected with GR siRNA at 10 uM incubated for 24 hrs in presence of progesterone by luciferase reporter gene assay relative to control; assay type: functional
[32] = target: T1, Estrogen receptor (Homo sapiens); assay: Induction of estrogen receptor in human T47D cells assessed as increase in PR-A protein expression at 10 uM incubated for 24 hrs by western blot analysis; assay type: cell-based; details: filed as activator
[33] = system: Ishikawa; assay: Induction of HRE/Luc activity in human Ishikawa null cells at 10 uM incubated for 24 hrs in presence of progesterone by luciferase reporter gene assay; assay type: functional, cell-based
[34] = target: T1, Estrogen receptor (Homo sapiens); assay: Induction of estrogen receptor in human T47D cells assessed as potentiation of progesterone transcriptional activity by measuring increase in HRE-Luc activity at 10 uM measured after 24 hrs in presence of 5 nM progesterone by HRE-dependent dual luciferase reporter gene assay; assay type: cell-based; details: filed as activator
[35] = target: T1, Estrogen receptor (Homo sapiens); assay: Induction of estrogen receptor in human T47D cells assessed as increase in PR-B protein expression at 10 uM incubated for 24 hrs in presence of SERM, 4-OH-TAM by western blot analysis; assay type: cell-based
[36] = system: Mus musculus; assay: In vivo potentiation of progesterone signalling in ovariectomized CD-1 mouse assessed as increase in FKBP5 expression in reproductive tract at 4 mg/kg, ip administered once a day for 7 days in presence of progesterone and measured on day 7 at 6 hrs post-last dosage by immunohistochemistry; assay type: functional, organism-based; details: time 7.0 day
[37] = target: T1, Estrogen receptor (Homo sapiens); assay: Induction of estrogen receptor in human T47D cells assessed as increase in PR-B protein expression at 10 uM incubated for 24 hrs by western blot analysis; assay type: cell-based; details: filed as activator

In the case of `O=c1c(-c2ccc(O)cc2)coc2cc3c(c(O)c12)OCO3`, the Activity [1] is reported as “inactive”, the Activity [2] is reported as “inactive” and the fold change (FC) [3] is reported as 4. For the same molecule, the Activity [4] was “inactive”, the fold change (FC) [5] was 1.07 and the fold change (FC) [6] was 44. For the same molecule, the Activity [7] was “inactive”, the Activity [8] was “inactive” and the Activity [9] was “inactive”. For the same molecule, the Activity [10] was “inactive”, the inhibition at 10 µM [11] was 22% and the Activity [12] was 0.93%. For the same molecule, the inhibition [13] was “inactive”, the inhibition [14] was “inactive” and the Activity [15] was “inactive”. For the same molecule, the Activity [16] was “inactive”, the Activity [17] was “inactive” and the inhibition [18] was “inactive”. The Activity [19] was “inactive”, the Activity [20] was “Active” and the “fold change (FC)” value [21] was 5.8. The fold change (FC) [22] was 1.2, the “fold change (FC)” value [23] was 38 and the Activity [24] was “Active”. The Activity [25] was “inactive”, the Activity [26] was “inactive” and the Activity [27] was 18.4%. For the same molecule, the Activity [28] was “inactive”, the Activity [29] was “inactive” and the Activity [30] was “inactive”. The “fold change (FC)” value [31] was 30, the Activity [32] was “Active” and the Activity [33] was “inactive”. For the same molecule, the Activity [34] was “Active”, the Activity [35] was “inactive” and the Activity [36] was “inactive”. For the same molecule, the Activity [37] was “Active”.
